Legend:
glod-4 animals = assay: LC-MS/MS estimation of a-DC levels (MGO, GO) in worms; format: in vivo, Caenorhabditis elegans; conditions: for Levels of GO / Levels of MGO: glod-4, PA; for Levels of GO: LA, or UMP (20 pM each) vs EtOH control; for Levels of MGO: LA, or UMP (20 pM) vs EtOH control
Protocol: Worms were cultured on NGM agar plates as explained before for lifespan experiments with some modifications: ˜100 animals/60 mm plates were used for each experimental replicate and animals were harvested at day 4 of adulthood with 20 pL M9 buffer in 1.5 mL eppendorf tubes. Worm suspensions were flash-frozen over liquid nitrogen and subsequently homogenized ultrasonically using a Fisher Scientific's 550 Sonic Dismembrator with 80 pL of sodium formate buffer (pH=3) containing 75 pM of 2,3-hexanedione (internal standard, IS). Two 20 s pulses at amplitude setting 4 of the instrument (on ice) were sufficient to completely homogenize worm bodies. To each homogenate tube 20 pL of 100 mg/mL o-phenelynediamine (OPD) solution in sodium formate buffer (pH=3) were added, and the mixture was allowed to react in dark at room temperature for ˜22 h. The long reaction time and the pH are critical parameters in this protocol: first to ensure complete derivatization of a-DCs bound reversibly to protein/glutathione —SHs; and second to prevent in vitro a-DC generation from glycolytic intermediates (DHAP, GAP, etc.) or due to DNA breakdown (Chaplen et al. (1998) Proc. Natl. Acad. Sci. USA, 95: 5533-5538). At the end of the stipulated reaction window, 12 pL of 5 M perchloric acid was added to each tube and incubated on ice for 30 min to ensure complete protein precipitation. Subsequently, the tubes were centrifuged at 10,000 rpm for 10 min, and the supernatant collected and neutralized with 30 pL 4 M NH4OH solution.
Optimization of analyte-specific MRM transitions, such as determination of suitable precursor and product ions and optimal MS parameters for each transition (Q1, precursor→Q3, product) were achieved by isocratic flow injection of the 10 pM solution (final) for each standard- or IS-OPD derivatives. The most intense (Q1→Q3) transition was used as quantifier, whereas the next best transition was used as qualifier for each compound (Table 4). For LC separation, a solvent gradient of 0.1% acetic acid in water (aqueous) - methanol (organic) was used with 0.4 mL/min flow rate, starting with an […] content of 3% for 0.7 min, which was increased to 100% over 6 min and held at 100% for 1.5 min. The LC column was subsequently reconstituted to its initial condition (methanol content of 3%) over the next 0.5 min and re-equilibrated for 3 min.
Derivatized metabolome extracts, as well as synthetic a-DCs were analyzed by scheduled LC-MRM in positive ion mode. To develop the scheduled LC-MRM method, MS/MS data was collected for all transitions across the length of each LC run for a mixture of synthetic GO-, MGO-, 3DG-, and 2,3-hexanedione (IS)-OPD derivatives (1 pL injection of 1 pM final concentration). Source conditions were as follows: curtain gas (CUR) 20, nebulizer gas (GS1) 60, auxiliary gas (GS2) 50, ionspray voltage (IS) 4500 V, and source temperature (TEM) 450° C. This step was undertaken to ascertain the LC retention times (RT) for the OPD derivatives. Several such sets were acquired to compute analyte-specific variability in RTs. Next, the MS was switched to operate in scheduled MRM mode, whereby the mass spectrometer acquired data for specific MRM transitions ±45 s around the computed RT for the analyte (Table 4). Relative quantification of GO, MGO, and 3DG were based on integration of corresponding OPD derivative-specific quantifier peaks obtained from scheduled LC-MRM runs (peak areas) and adjusted to the number of animals. To account for OPD derivatization efficiencies in individual tubes, sample-to-sample variability in MS response, and differential sample dilutions (both for synthetic a-DCs as well as a-DCs in worm homogenates), the peak areas were normalized to the quantifier peak area for IS-OPD for each sample.

C. elegans = assay: Neuronal damage assay, pan-neuronal GFP reporter (unc-33p::gfp); format: in vivo, Caenorhabditis elegans
Protocol: Animals were paralyzed using freshly prepared 5 mM levamisole in M9 buffer and mounted on 2% agar pads under glass coverslips. […] Images were acquired under 40× objective. Neuronal deterioration was examined and characterized by loss of fluorescent intensity of nerve ring, neuronal waviness, and thinning and fragmentation of axons and neuronal commissures. Quantification and imaging of animals harboring damage was performed using the Image J™ software (//imagei.nih.gov/ii/).

[1] = test system: 50B11 cells (immortalized rat DRG neuronal cells); assay: MGO-mediated neurotoxicity in differentiated 50B11 cells (DIC imaging, neurite length, soma size); format: cell-based; conditions: 20-24 h
Protocol: 50B11 cells (immortalized rat DRG neuronal cells) maintain self-replication capability over many cell divisions (>300). The results described in this article were obtained with cells between 100 and 400 passages. Cells were grown in antibiotic treated complete Neurobasal media containing glucose, L-glutamine, Fetal Bovine Serum (FBS), B-27 supplement, and nerve growth factor (NGF) (100 ng/ml). Differentiation and axonal elongation was induced by addition of forskolin (75 pM) into the culture medium. […] Methylglyoxal was administered at a final concentration of 250 pM for 20-24 h post-differentiation of the cells. Podocarpic acid was added at a final concentration of 250 pM and incubated for the same period with or without methylglyoxal. Ethanol was used as a vehicle control. […] Neurite outgrowth was quantified by manually measuring the length of a projection from the edge of the cell body; a neurite was defined as a thin projection longer than the diameter of the associated cell body. Area of soma or cell body was measured excluding the neurite projections. Images were processed using Image Analyst MKII software (www.imageanalyst.net/) and quantification was done using Image J software (//imagei.nih.gov/ij/). 75-100 cells selected randomly were considered for quantification under each experimental condition.

| SMILES | Levels of GO (glod-4 animals) | Levels of MGO (glod-4 animals) | Levels of MGO under trpa-1 knockdown (glod-4 animals; glod-4 on trpa-1 RNAi, PA vs EtOH control) | Neuronal damage (C. elegans; unc-33p::gfp on glod-4 RNAi, day 10 of adulthood, PA (20 pM) vs EtOH control) | MGO-induced neurotoxic phenotypes (cell body size, neurite outgrowth) ([1]; PA and MGO each at 250 pM) | Neuronal damage (C. elegans; unc-33p::gfp, day 4 of adulthood, 7 mM MGO vs water) | Neurite length (neurite outgrowth) ([1]; MGO 250 pM) | Soma size (cell bodies) ([1]; MGO 250 pM) |
| --- | --- | --- | --- | --- | --- | --- | --- | --- |
| C[C@]1(C(=O)O)CCC[C@]2(C)c3cc(O)ccc3CC[C@@H]12 [PA, podocarpic acid] | almost wild-type-like levels | almost wild-type-like levels | no effect | prevent the prominent neuronal damages | ameliorate these MGO-induced neurotoxic phenotypes | – | – | – |
| O=C(O)CCCCC1CCSS1 (stereo not shown) [LA, a-lipoic acid] | almost wild-type-like levels | almost wild-type-like levels | – | – | – | – | – | – |
| CC(=O)C=O [MGO, methylglyoxal] | – | – | – | – | – | neuronal damage | significant retraction of neurite outgrowths | shrinkage in cell bodies |
